# According to article PMC10178848, “Modulating fast skeletal muscle contraction protects skeletal muscle in animal models of Duchenne muscular dystrophy” (The Journal of Clinical Investigation, 2023):
# Read-outs that look alike come from different tables or passages of the source.
# System: GRMD plasma proteins
# Format: in vivo, dog
# [1] = EDG-5506 treatment to GRMD baseline, Increased in GRMD
smiles,measurement,setting,value
O=c1ccc(-c2cnc(OCC(F)(F)F)nc2)nn1Cc1cncc(F)c1 [EDG-5506],Change from GRMD Baseline (fraction): Tyrosine-protein kinase Yes (YES1),[1],-0.1382 fraction
same,Change from GRMD Baseline (fraction): Tyrosine-protein kinase ZAP-70 (ZAP70),[1],-0.1508 fraction
same,Change from GRMD Baseline (fraction): Tyrosine-protein phosphatase non-receptor type 1 (PTPN1),[1],-0.1492 fraction
same,Change from GRMD Baseline (fraction): Tyrosine-protein phosphatase non-receptor type 11 (PTPN11),[1],-0.1298 fraction
same,Change from GRMD Baseline (fraction): UMP-CMP kinase (CMPK1),[1],-0.0444 fraction
same,Change from GRMD Baseline (fraction): Ubiquitin carboxyl-terminal hydrolase 25 (USP25),[1],-0.1723 fraction
same,Change from GRMD Baseline (fraction): Ubiquitin carboxyl-terminal hydrolase isozyme L1 (UCHL1),[1],-0.1135 fraction
same,Change from GRMD Baseline (fraction): Ubiquitin-fold modifier 1 (UFM1),[1],-0.238 fraction
same,Change from GRMD Baseline (fraction): Vascular cell adhesion protein 1 (VCAM1),[1],-0.0642 fraction
same,Change from GRMD Baseline (fraction): Vitamin K-dependent protein C (PROC),[1],-0.2124 fraction
same,Change from GRMD Baseline (fraction): Vitronectin (VTN),[1],-0.1269 fraction
same,Change from GRMD Baseline (fraction): cAMP-dependent protein kinase catalytic subunit alpha (PRKACA),[1],-0.4297 fraction
same,Change from GRMD Baseline (fraction): dCTP pyrophosphatase 1 (DCTPP1),[1],-0.2045 fraction
same,Chitotriosidase-1 (CHIT1): Change from GRMD Baseline (fraction),[1],-0.0569 fraction
same,Chorionic somatomammotropin hormone (CSH1 CSH2): Change from GRMD Baseline (fraction),[1],-0.0697 fraction
same,Chromobox protein homolog 5 (CBX5): Change from GRMD Baseline (fraction),[1],-0.0792 fraction
same,Coagulation Factor X (F10): Change from GRMD Baseline (fraction),[1],0.1015 fraction
same,Coagulation factor IX (F9): Change from GRMD Baseline (fraction),[1],0.0746 fraction
same,"Complement component 1 Q subcomponent-binding protein, mitochondrial (C1QBP): Change from GRMD Baseline (fraction)",[1],-0.0848 fraction
same,Connective tissue growth factor (CTGF): Change from GRMD Baseline (fraction),[1],-0.0649 fraction
same,Cyclin-dependent kinase 1:G2/mitotic-specific cyclin-B1 complex (CDC2 CCNB1): Change from GRMD Baseline (fraction),[1],-0.037 fraction
same,Cyclin-dependent kinase 5:Cyclin-dependent kinase 5 activator 1 complex (CDK5 CDK5R1): Change from GRMD Baseline (fraction),[1],-0.0717 fraction
same,Cytokine receptor-like factor 1:Cardiotrophin-like cytokine factor 1 Complex (CRLF1 CLCF1): Change from GRMD Baseline (fraction),[1],0.1068 fraction
same,"Dual 3',5'-cyclic-AMP and -GMP phosphodiesterase 11A (PDE11A): Change from GRMD Baseline (fraction)",[1],0.0578 fraction
same,"Ectodysplasin-A, secreted form (EDA): Change from GRMD Baseline (fraction)",[1],-0.0132 fraction
same,Endothelial cell-selective adhesion molecule (ESAM): Change from GRMD Baseline (fraction),[1],0.0149 fraction
same,Endothelial monocyte-activating polypeptide 2 (AIMP1): Change from GRMD Baseline (fraction),[1],-0.1718 fraction
same,Extracellular superoxide dismutase [Cu-Zn] (SOD3): Change from GRMD Baseline (fraction),[1],-0.0256 fraction
same,Ficolin-2 (FCN2): Change from GRMD Baseline (fraction),[1],-0.1165 fraction
same,Fms-related tyrosine kinase 3 ligand (FLT3LG): Change from GRMD Baseline (fraction),[1],-0.0844 fraction
same,Galactoside 3(4)-L-fucosyltransferase (FUT3): Change from GRMD Baseline (fraction),[1],0.0031 fraction
same,Galectin-10 (CLC): Change from GRMD Baseline (fraction),[1],0.0351 fraction
same,Glial fibrillary acidic protein (GFAP): Change from GRMD Baseline (fraction),[1],-0.0103 fraction
same,Glycylpeptide N-tetradecanoyltransferase 1 (NMT1): Change from GRMD Baseline (fraction),[1],-0.1333 fraction
same,Group 10 secretory phospholipase A2 (PLA2G10): Change from GRMD Baseline (fraction),[1],0.0049 fraction
same,Growth hormone receptor (GHR): Change from GRMD Baseline (fraction),[1],-0.0293 fraction
same,Growth-regulated alpha protein (CXCL1): Change from GRMD Baseline (fraction),[1],-0.0678 fraction
same,Growth/differentiation factor 15 (GDF15): Change from GRMD Baseline (fraction),[1],-0.0948 fraction
same,Hepatocyte growth factor (HGF): Change from GRMD Baseline (fraction),[1],-0.0495 fraction
same,Hepcidin (HAMP): Change from GRMD Baseline (fraction),[1],-0.0269 fraction
same,Immunoglobulin M (IGHM IGJ IGK@ IGL@): Change from GRMD Baseline (fraction),[1],-0.1429 fraction
same,Importin subunit alpha-1 (KPNA2): Change from GRMD Baseline (fraction),[1],-0.0896 fraction
same,Induced myeloid leukemia cell differentiation protein Mcl-1 (MCL1): Change from GRMD Baseline (fraction),[1],-0.0522 fraction
same,Inorganic pyrophosphatase (PPA1): Change from GRMD Baseline (fraction),[1],-0.2863 fraction
same,Insulin-like growth factor-binding protein 7 (IGFBP7): Change from GRMD Baseline (fraction),[1],-0.0264 fraction
same,Integrin alpha-IIb: beta-3 complex (ITGA2B ITGB3): Change from GRMD Baseline (fraction),[1],-0.0613 fraction
same,Interleukin-4 (IL4): Change from GRMD Baseline (fraction),[1],-0.0475 fraction
same,Interleukin-6 receptor subunit beta (IL6ST): Change from GRMD Baseline (fraction),[1],0.0395 fraction
same,Interleukin-8 (CXCL8): Change from GRMD Baseline (fraction),[1],-0.0542 fraction
same,Interleukin-10 receptor subunit beta (IL10RB): Change from GRMD Baseline (fraction),[1],-0.0725 fraction
same,Interleukin-17 receptor C (IL17RC): Change from GRMD Baseline (fraction),[1],-0.0346 fraction
same,Interleukin-18 receptor accessory protein (IL18RAP): Change from GRMD Baseline (fraction),[1],-0.0372 fraction
same,Interleukin-27 (IL27 EBI3): Change from GRMD Baseline (fraction),[1],-0.0259 fraction
same,Interleukin-36 beta (IL36B): Change from GRMD Baseline (fraction),[1],-0.0479 fraction
same,Killer cell immunoglobulin-like receptor 3DS1 (KIR3DS1): Change from GRMD Baseline (fraction),[1],0.0065 fraction
same,Killer cell lectin-like receptor subfamily F member 1 (KLRF1): Change from GRMD Baseline (fraction),[1],-0.0162 fraction
same,Lamin-B1 (LMNB1): Change from GRMD Baseline (fraction),[1],0.0054 fraction
same,Laminin (LAMA1 LAMB1 LAMC1): Change from GRMD Baseline (fraction),[1],-0.1316 fraction
same,Low-density lipoprotein receptor-related protein 1B (LRP1B): Change from GRMD Baseline (fraction),[1],-0.0892 fraction
same,Macrophage-stimulating protein receptor (MST1R): Change from GRMD Baseline (fraction),[1],-0.0588 fraction
same,Matrilin-3 (MATN3): Change from GRMD Baseline (fraction),[1],-0.1231 fraction
same,Matrilysin (MMP7): Change from GRMD Baseline (fraction),[1],-0.0308 fraction
same,N-terminal pro-BNP (NPPB): Change from GRMD Baseline (fraction),[1],-0.0602 fraction
same,NKG2D ligand 3 (ULBP3): Change from GRMD Baseline (fraction),[1],-0.0822 fraction
same,Neural cell adhesion molecule L1-like protein (CHL1): Change from GRMD Baseline (fraction),[1],-0.0329 fraction
same,Neurexophilin-1 (NXPH1): Change from GRMD Baseline (fraction),[1],-0.0271 fraction
same,OX-2 membrane glycoprotein (CD200): Change from GRMD Baseline (fraction),[1],-0.0611 fraction
same,Persephin (PSPN): Change from GRMD Baseline (fraction),[1],-0.013 fraction
same,"Phosphatidylinositol 4,5-bisphosphate 3-kinase catalytic subunit gamma isoform (PIK3CG): Change from GRMD Baseline (fraction)",[1],-0.1006 fraction
same,Pituitary adenylate cyclase-activating polypeptide 27 (ADCYAP1): Change from GRMD Baseline (fraction),[1],0.1436 fraction
same,Platelet factor 4 (PF4): Change from GRMD Baseline (fraction),[1],-0.1659 fraction
same,Platelet glycoprotein VI (GP6): Change from GRMD Baseline (fraction),[1],0.0008 fraction
same,Prolactin (PRL): Change from GRMD Baseline (fraction),[1],-0.0751 fraction
same,Prolactin receptor (PRLR): Change from GRMD Baseline (fraction),[1],-0.064 fraction
same,Proteasome subunit alpha type-6 (PSMA6): Change from GRMD Baseline (fraction),[1],-0.0773 fraction
same,Protein E7_HPV18 (Human-virus): Change from GRMD Baseline (fraction),[1],-0.1102 fraction
same,Proto-oncogene tyrosine-protein kinase receptor Ret (RET): Change from GRMD Baseline (fraction),[1],-0.0388 fraction
same,RNA-binding protein 39 (RBM39): Change from GRMD Baseline (fraction),[1],-0.0705 fraction
same,Ras GTPase-activating protein 1 (RASA1): Change from GRMD Baseline (fraction),[1],-0.1536 fraction
same,Ribosome maturation protein SBDS (SBDS): Change from GRMD Baseline (fraction),[1],-0.2649 fraction
same,SPARC-related modular calcium-binding protein 1 (SMOC1): Change from GRMD Baseline (fraction),[1],-0.0553 fraction
same,Secreted and transmembrane protein 1 (SECTM1): Change from GRMD Baseline (fraction),[1],-0.0267 fraction
same,Serine/threonine-protein kinase PAK 3 (PAK3): Change from GRMD Baseline (fraction),[1],-0.1036 fraction
same,Serine/threonine-protein kinase PAK 7 (PAK7): Change from GRMD Baseline (fraction),[1],-0.037 fraction
same,Serine/threonine-protein kinase pim-1 (PIM1): Change from GRMD Baseline (fraction),[1],-0.0646 fraction
same,Serum amyloid A-1 protein (SAA1): Change from GRMD Baseline (fraction),[1],-0.1842 fraction
same,Sialic acid-binding Ig-like lectin 7 (SIGLEC7): Change from GRMD Baseline (fraction),[1],-0.0326 fraction
same,Small ubiquitin-related modifier 3 (SUMO3): Change from GRMD Baseline (fraction),[1],-0.2515 fraction
same,Stromelysin-1 (MMP3): Change from GRMD Baseline (fraction),[1],0.0153 fraction
same,Stromelysin-2 (MMP10): Change from GRMD Baseline (fraction),[1],-0.0419 fraction
same,Synaptosomal-associated protein 25 (SNAP25): Change from GRMD Baseline (fraction),[1],0.0795 fraction
same,T-cell surface glycoprotein CD4 (CD4): Change from GRMD Baseline (fraction),[1],-0.0326 fraction
same,T-lymphocyte activation antigen CD86 (CD86): Change from GRMD Baseline (fraction),[1],-0.0169 fraction
same,TATA-box-binding protein (TBP): Change from GRMD Baseline (fraction),[1],-0.0838 fraction
same,Thyroxine-binding globulin (SERPINA7): Change from GRMD Baseline (fraction),[1],0.0123 fraction
same,Transcription factor IIIB 90 kDa subunit (BRF1): Change from GRMD Baseline (fraction),[1],-0.0779 fraction
same,Tumor necrosis factor ligand superfamily member 18 (TNFSF18): Change from GRMD Baseline (fraction),[1],-0.0886 fraction
same,Tumor necrosis factor receptor superfamily member 13B (TNFRSF13B): Change from GRMD Baseline (fraction),[1],-0.1006 fraction
same,Tumor necrosis factor receptor superfamily member 13C (TNFRSF13C): Change from GRMD Baseline (fraction),[1],0.0816 fraction
same,Tumor-associated calcium signal transducer 2 (TACSTD2): Change from GRMD Baseline (fraction),[1],-0.0508 fraction
same,Ubiquitin-conjugating enzyme E2 G2 (UBE2G2): Change from GRMD Baseline (fraction),[1],0.0044 fraction
same,WNT1-inducible-signaling pathway protein 1 (WISP1): Change from GRMD Baseline (fraction),[1],-0.2187 fraction
same,WNT1-inducible-signaling pathway protein 3 (WISP3): Change from GRMD Baseline (fraction),[1],-0.0425 fraction
same,alpha-2-macroglobulin receptor-associated protein (LRPAP1): Change from GRMD Baseline (fraction),[1],-0.1071 fraction
same,"cGMP-dependent 3',5'-cyclic phosphodiesterase (PDE2A): Change from GRMD Baseline (fraction)",[1],-0.1496 fraction
same,Change from GRMD Baseline (fraction),"Endothelial cell-specific molecule 1 (ESM1), EDG-5506 treatment to GRMD baseline",-0.0233 fraction
same,Change from GRMD Baseline (fraction),"Endothelial cell-specific molecule 1 (ESM1), Post-Treatment to GRMD baseline",-0.0289 fraction
same,Change from GRMD Baseline (fraction),"Ephrin-B3 (EFNB3), EDG-5506 treatment to GRMD baseline",0.1026 fraction
same,Change from GRMD Baseline (fraction),"Ephrin-B3 (EFNB3), Post-Treatment to GRMD baseline",-0.0272 fraction
same,Change from GRMD Baseline (fraction),"Eukaryotic translation initiation factor 4E-binding protein 2 (EIF4EBP2), EDG-5506 treatment to GRMD baseline",0.16 fraction
same,Change from GRMD Baseline (fraction),"Eukaryotic translation initiation factor 4E-binding protein 2 (EIF4EBP2), Post-Treatment to GRMD baseline",0.0377 fraction
same,common DMD plasma proteomic signature,"GRMD plasma, Somascan",significantly reversed this common DMD signature
same,Change from GRMD Baseline (fraction),"Glutathione S-transferase A3 (GSTA3), EDG-5506 treatment to GRMD baseline",0.0601 fraction
same,Change from GRMD Baseline (fraction),"Glutathione S-transferase A3 (GSTA3), Post-Treatment to GRMD baseline",1.476 fraction
same,Change from GRMD Baseline (fraction),"Heparan-sulfate 6-O-sulfotransferase 1 (HS6ST1), EDG-5506 treatment to GRMD baseline",0.0701 fraction
same,Change from GRMD Baseline (fraction),"Heparan-sulfate 6-O-sulfotransferase 1 (HS6ST1), Post-Treatment to GRMD baseline",-0.1313 fraction
same,Change from GRMD Baseline (fraction),"Histone H3.1 (HIST1H3A), EDG-5506 treatment to GRMD baseline",0.1658 fraction
same,Change from GRMD Baseline (fraction),"Histone H3.1 (HIST1H3A), Post-Treatment to GRMD baseline",0.0723 fraction
same,Change from GRMD Baseline (fraction),"Human Chorionic Gonadotropin (CGA CGB), EDG-5506 treatment to GRMD baseline",0.1653 fraction
